Assay results taken from BindingDB's records for doi:10.1016/j.bmcl.2008.01.038 (Inspire Pharmaceuticals, 2008).

assay: Antagonist activity at P2Y12 receptor assessed as platelet aggregation by washed platelet assay

Compared with `CCNC(=O)Nc1ncnc2c1ncn2[C@@H]1O[C@H](COCc2ccc(C(=O)O)cc2)[C@H]2O[C@H](/C=C/c3ccccc3)O[C@H]21`, `CCNC(=O)Nc1ncnc2c1ncn2[C@@H]1O[C@H](COCc2cccc(C(=O)O)c2)[C@H]2O[C@H](/C=C/c3ccccc3)O[C@H]21` is 2.1-fold lower in IC50: 1310 nM for the first, 616 nM for the second. The second is the more potent here.

Going from `CCNC(=O)Nc1ncnc2c1ncn2[C@@H]1O[C@H](COCc2ccccc2C(=O)O)[C@H]2O[C@H](/C=C/c3ccccc3)O[C@H]21` to `CCNC(=O)Nc1ncnc2c1ncn2[C@@H]1O[C@H](COCC(=O)O)[C@H]2O[C@H](/C=C/c3ccccc3)O[C@H]21`, the IC50 rises from 40 nM to 243 nM (6.1-fold).

`CCNC(=O)Nc1ncnc2c1ncn2[C@@H]1O[C@H](CC(=O)O)[C@H]2O[C@H](/C=C/c3ccccc3)O[C@H]21` and `CCNC(=O)Nc1ncnc2c1ncn2[C@@H]1O[C@H](CCC(=O)O)[C@H]2O[C@H](/C=C/c3ccccc3)O[C@H]21` are within 1.5-fold of each other in IC50: 663 nM for the first, 495 nM for the second.

`CCNC(=O)Nc1ncnc2c1ncn2[C@@H]1O[C@H](CS(=O)(=O)CC(=O)O)[C@H]2O[C@H](/C=C/c3ccccc3)O[C@H]21` and `CCNC(=O)Nc1ncnc2c1ncn2[C@@H]1O[C@H](CS(=O)(=O)CC(C)O)[C@H]2O[C@H](/C=C/c3ccccc3)O[C@H]21` (stereo partly specified) are within 1.5-fold of each other in IC50: 2480 nM for the first, 2490 nM for the second.

Going from `CCNC(=O)Nc1ncnc2c1ncn2[C@@H]1O[C@H](CSCC(=O)O)[C@H]2O[C@H](/C=C/c3ccccc3)O[C@H]21` to `CCNC(=O)Nc1ncnc2c1ncn2[C@@H]1O[C@H](CNCC(=O)O)[C@H]2O[C@H](/C=C/c3ccccc3)O[C@H]21`, the IC50 falls from 3800 nM to 513 nM (7.4-fold). The second is the more potent here.

Compared with `CCNC(=O)Nc1ncnc2c1ncn2[C@@H]1O[C@H](CSCC(O)CO)[C@H]2O[C@H](/C=C/c3ccccc3)O[C@H]21` (stereo partly specified), `CCNC(=O)Nc1ncnc2c1ncn2[C@@H]1O[C@H](CO)[C@H]2O[C@H](/C=C/c3ccccc3)O[C@H]21` is 7.8-fold lower in IC50: 9900 nM for the first, 1270 nM for the second. The second is the more potent here.

First: CCNC(=O)Nc1ncnc2c1ncn2[C@@H]1O[C@H](CNC(=O)c2cccs2)[C@H]2O[C@H](/C=C/c3ccccc3)O[C@H]21
Second: CCNC(=O)Nc1ncnc2c1ncn2[C@@H]1O[C@H](CNC(=O)c2ccco2)[C@H]2O[C@H](/C=C/c3ccccc3)O[C@H]21
The IC50 of the first is 2.2-fold lower: 2230 nM for the first, 4860 nM for the second. The first is the more potent here.

First: CCNC(=O)Nc1ncnc2c1ncn2[C@@H]1O[C@H](CNCc2ccccc2F)[C@H]2O[C@H](/C=C/c3ccccc3)O[C@H]21
Second: CCNC(=O)Nc1ncnc2c1ncn2[C@@H]1O[C@H](CN)[C@H]2O[C@H](/C=C/c3ccccc3)O[C@H]21
The IC50 of the first is 1.9-fold lower: 2550 nM for the first, 4730 nM for the second.

First: CCNC(=O)Nc1ncnc2c1ncn2[C@@H]1O[C@H](CN(CC2CC2C(=O)O)CC2CC2C(=O)O)[C@H]2O[C@H](/C=C/c3ccccc3)O[C@H]21 (stereo partly specified)
Second: CCNC(=O)Nc1ncnc2c1ncn2[C@@H]1O[C@H](CNCC2CC2C(=O)O)[C@H]2O[C@H](/C=C/c3ccccc3)O[C@H]21 (stereo partly specified)
The IC50 of the first is 4.7-fold lower: 580 nM for the first, 2700 nM for the second. The first is the more potent here.

`CCNC(=O)Nc1ncnc2c1ncn2[C@@H]1O[C@H](CNCC2CC2C(=O)OCC)[C@H]2O[C@H](/C=C/c3ccccc3)O[C@H]21` (stereo partly specified) and `CCNC(=O)Nc1ncnc2c1ncn2[C@@H]1O[C@H](CNC(=O)CO)[C@H]2O[C@H](/C=C/c3ccccc3)O[C@H]21` are within 1.5-fold of each other in IC50: 4330 nM for the first, 2950 nM for the second.

`CCNC(=O)Nc1ncnc2c1ncn2[C@@H]1O[C@H](C(=O)O)[C@H]2O[C@H](/C=C/c3ccccc3)O[C@H]21` showed an IC50 of 201 nM.
